Reference: patent publication US11596633B2, “SHP2 inhibitor compositions and methods for treating cancer” (Revolution Medicines, Inc., priority 2017, dated 2023)

Assays:
RAS-GTP in MeWo cells = assay: RAS-GTP pulldown (Raf-RBD); format: cell-based; conditions: MeWo (NF1 LOF)
Procedure: (§1) To determine the effects of small molecules on levels of activated RAS-GTPase, cell lines of interest were cultured under standard 2D culture conditions. Cells were seeded and following overnight incubation incubated at 37° C. with vehicle (DMSO) or test article(s). After an appropriate incubation period, cells were washed and cell lysis buffer added to prepare a cell lysate. The levels of Ras-GTP in the lysates were determined using affinity purification of a Raf-RBD (Ras binding domain of Raf)/GTP-Ras complex. In one approach, the Pierce Active Ras Pulldown and Detection Kit was used. Briefly, clarified lysates (500 μg total protein, quantified by BCA) were mixed with glutathione resin, which had been preincubated with GST-Raf-RBD. The mixture was vortexed and incubated at 4° C. for 1 hour with gentle rocking. The resin was washed three times with lysis buffer and bound Ras-GTP eluted by addition of 2× reducing sample buffer. Eluted proteins were separated by SDS-PAGE using a 4-15% Tris-glycine gel (BioRad). Proteins were transferred to a nitrocellulose membrane for western blot using an anti-Ras antibody (Thermofisher, 1:200) and a Licor IRDye-800 anti-mouse secondary antibody (1:20,000). The Licor Odyssey CLx was used for visualization.

RAS-GTP in A375 cells = assay: RAS-GTP pulldown (Raf-RBD); format: cell-based; conditions: A375 (Class I BRAF V600E)
Procedure: as §1

RAS-GTP in Cal-12T cells = assay: RAS-GTP pulldown (Raf-RBD); format: cell-based; conditions: Cal-12T (Class III BRAF G466V/+)
Procedure: as §1

[1] = system: RAS-GTP in NCI-H508 cells; assay: RAS-GTP pulldown (Raf-RBD); format: cell-based; conditions: NCI-H508 (Class III BRAF G596R/+)
Procedure: as §1

[2] = system: RAS-GTP in NCI-H1666 cells; assay: RAS-GTP pulldown (Raf-RBD); format: cell-based; conditions: NCI-H1666 (Class III BRAF G466V/+)
Procedure: as §1

NCI-H508 = assay: 3D proliferation (CTG); format: cell-based; conditions: NCI-H508 (Class III BRAF G596R/+)
pERK in A375 cells = assay: p-ERK AlphaLisa SureFire; format: cell-based; conditions: A375 (Class I BRAF V600E)
Procedure: (§2) Cells were plated at ˜20×10^3 cells per well and following overnight incubation were washed with serum-free media. Cells were then incubated for one hour with increasing concentrations of the test article in serum-free media containing 0.2% BSA prior to termination of the assay and measurement of pERK levels in cellular lysates by AlphaLisa SureFire Ultra kit conducted according to the manufacturer's instructions.

pERK in MeWo cells = assay: p-ERK AlphaLisa SureFire; format: cell-based
Procedure: as §2

YUHEF melanoma cell line = conditions: YUHEF (NF1 Q853*/FS-indel), 3D culture
Procedure: (§3) To evaluate cell viability in 3D culture, cells in logarithmic growth phase were plated in growth medium containing 0.65% methylcellulose at an optimum seeding density. Cells were incubated overnight prior to treatment with different concentrations of the test article. Cells were cultured for an additional seven days and cell viability assessed using the CellTiterGlo™ (CTG) reagent, according to the manufacturer's instructions. In some instances, cells were grown in 3D culture as spheroids. Briefly, 2500 cells/well were seeded in round bottom ultra-low attachment 96-well plates (Corning) in growth media supplemented with 10% fetal bovine serum and 1% penicillin/streptomycin, and allowed to form spheroids for 72 hours at 37° C. in 5% CO2. […] Following drug exposure for five days, cell viability in spheroids was determined using the CellTiter-Glo assay kit. H1838 cells were seeded at 5×10^3 cells per well of a 12-well plate. After one day in culture, cells were treated with the test article, which was then replenished every three days.

NF1 LOF cell lines = conditions: 3D culture, CTG Day 7
Procedure: as §3

NCI-H1573 = assay: 3D cell viability (CTG); format: cell-based; conditions: Homo sapiens; NCI-H1573, KRAS G12A, 3D culture
SW620 = assay: 3D cell viability (CTG); format: cell-based; conditions: Homo sapiens, SW-620; SW620, KRAS G12V, 3D culture
Procedure: (§4) To evaluate cell viability in 3D culture, cells in logarithmic growth phase were plated in growth medium containing 0.65% methylcellulose at an optimum seeding density. Cells were incubated overnight prior to treatment with different concentrations of the test article. Cells were cultured for an additional seven days and cell viability assessed using the CellTiterGlo™ (CTG) reagent, according to the manufacturer's instructions. In some instances, cells were grown in 3D culture as spheroids. Briefly, 2500 cells/well were seeded in round bottom ultra-low attachment 96-well plates (Corning) in growth media supplemented with 10% fetal bovine serum and 1% penicillin/streptomycin, and allowed to form spheroids for 72 hours at 37° C. in 5% CO2. […] Following drug exposure for five days, cell viability in spheroids was determined using the CellTiter-Glo assay kit. […] After one day in culture, cells were treated with the test article, which was then replenished every three days. Cells were maintained in culture for 10 days until the control wells reached confluency at which time the cells were fixed and stained with crystal violet.

SW480 = assay: 3D cell viability (CTG); format: cell-based; conditions: Homo sapiens; SW480, KRAS G12V, 3D culture
Procedure: as §4

H358 KRas G12C xenograft = assay: NSCLC H358 xenograft, CB.17 SCID mice; format: in vivo; conditions: oral administration
Procedure: Compound A or Compound B were administered by oral gavage daily. The positive control, paclitaxel (30 mg/kg iv) in 5% ethanol, 5% cremophor EL, in 5% dextrose in deionized water was administered once every five days. Trametinib (1 mg/kg PO in 0.5% Methylcellulose+0.5% Tween 80) was administered by oral gavage daily. The study endpoint was defined as a mean tumor volume of 2000 mm^3 in the control group or 22 days, whichever came first. Mean tumor volume data are reported for all animals that remained on study.

NCI-H23 = assay: 3D cell viability (CTG); format: cell-based; conditions: Homo sapiens; NCI-H23, KRAS G12C, 3D culture
Procedure: as §4

[3] = system: H1838 NF1 LOF NSCLC cells; assay: Cell growth, crystal violet stain; format: cell-based; conditions: 10 days
Procedure: as §4

| Structure (SMILES) | RAS-GTP levels (RAS-GTP in MeWo cells) | RAS-GTP levels (RAS-GTP in A375 cells) | RAS-GTP levels (RAS-GTP in Cal-12T cells) | RAS-GTP levels [1] | RAS-GTP levels [2] | proliferation (NCI-H508) | pERK levels (pERK in A375 cells) | IC50 (pERK in MeWo cells; Homo sapiens, MeWo, 1 h, read-out: geometric mean IC50 for reduction in pERK) | pERK (pERK in MeWo cells; MeWo (NF1 LOF)) | effect on proliferation (YUHEF melanoma cell line) | NF1 LOF cell lines whose proliferation exhibited sensitivity (NF1 LOF cell lines) | IC50 (NCI-H1573) | IC50 (SW620) | IC50 (SW480) | tumor volume (H358 KRas G12C xenograft) | IC50 (NCI-H23) | cell growth (crystal violet stain) [3] |
| --- | --- | --- | --- | --- | --- | --- | --- | --- | --- | --- | --- | --- | --- | --- | --- | --- | --- |
| Cc1nc(N2CCC3(CC2)CO[C@@H](C)[C@H]3N)c(CO)nc1-c1cccc(Cl)c1Cl [Compound B] | downregulation | failed to suppress | suppression | suppression | suppression | suppression | failed to suppress | 24 nM | suppression | No effect | 3/4 | – | – | – | – | – | – |
| Nc1nc(N2CCC3(CCC[C@H]3N)CC2)cnc1Sc1ccnc(Cl)c1Cl [Compound A] | – | – | – | – | – | – | – | – | – | – | – | 0.2 µM | > 10 µM | > 10 µM | dose-dependent decrease | 0.7 µM | potently inhibited |
